Several values for one entry are separate records, joined by “and”; a condition that tells them apart may be missing. Equal entries are not always repeated.
Tested on: C. elegans
Experiment: C. elegans motor phenotype scoring on solid media (Punc/jerky-unc, coiled, paralyzed), wild-type young adults
Assay type: in vivo, Caenorhabditis elegans
Settings: for atypical locomotion (number of animals) / no phene (number of animals) / paralyzed (number of animals) / any phene: mean % fraction of young adults exhibiting any phenotype (coiled, jerky-Unc or paralyzed) / coiled (number of animals): one hour; for atypical locomotion (number of animals) / no phene (number of animals) / paralyzed (number of animals) / coiled (number of animals): young adults, 20 animals per trial, single technical replicate; for any phene: mean % fraction of young adults exhibiting any phenotype (coiled, jerky-Unc or paralyzed): mean of three biological replicates; for Fraction Coiled / Fraction Jerky-Unc / Fraction No Phenotype / Fraction Parayzed: 60 min
[1] = 15 µM, N2 adult worms, Averages of 3 biological repeats
[2] = 15 µM, N2 adult worms, Bio Rep 1
[3] = 15 µM, N2 adult worms, Bio Rep 3
[4] = 15 µM, N2 adult worms, Bio rep 2
[5] = 30 µM, N2 adult worms, Averages of 3 biological repeats
[6] = 30 µM, N2 adult worms, Bio Rep 1
[7] = 30 µM, N2 adult worms, Bio Rep 3
[8] = 30 µM, N2 adult worms, Bio rep 2
[9] = 60 µM, N2 adult worms, Averages of 3 biological repeats
[10] = 60 µM, N2 adult worms, Bio Rep 1
[11] = 60 µM, N2 adult worms, Bio Rep 3
[12] = 60 µM, N2 adult worms, Bio rep 2
[13] = 120 µM, N2 adult worms, Averages of 3 biological repeats
[14] = 120 µM, N2 adult worms, Bio Rep 1
[15] = 120 µM, N2 adult worms, Bio Rep 3
[16] = 120 µM, N2 adult worms, Bio rep 2
[17] = 240 µM, N2 adult worms, Averages of 3 biological repeats
[18] = 240 µM, N2 adult worms, Bio Rep 1
[19] = 240 µM, N2 adult worms, Bio Rep 3
[20] = 240 µM, N2 adult worms, Bio rep 2
[21] = N2, 15 µM, adult worms, average of 3 biological repeats
[22] = N2, 30 µM, adult worms, average of 3 biological repeats
[23] = N2, 60 µM, adult worms, average of 3 biological repeats
[24] = N2, 120 µM, adult worms, average of 3 biological repeats
[25] = N2, 240 µM, adult worms, average of 3 biological repeats

O[C@@H]1CCCC[C@H]1N1CCC(c2ccccc2)CC1 (racemic) [vesamicol, reference compound]
atypical locomotion (number of animals) (3.75uM): 0 | no phene (number of animals) (3.75uM): 20 | paralyzed (number of animals) (3.75uM): 0 | any phene: mean % fraction of young adults exhibiting any phenotype (coiled, jerky-Unc or paralyzed) (3.75uM): 0% | Fraction Coiled [1]: 0.00 | Fraction Jerky-Unc [1]: 0.17 | Fraction No Phenotype [1]: 0.83 | Fraction Parayzed [1]: 0.00 | Fraction Jerky-Unc [2]: 0.2778 | Fraction No Phenotype [2]: 0.72 | Fraction Parayzed [2]: 0 | Fraction Coiled [3]: 0.00 | Fraction Jerky-Unc [3]: 0.1667 | Fraction No Phenotype [3]: 0.83 | Fraction Parayzed [3]: 0 | Fraction Coiled [4]: 0.00 | Fraction Jerky-Unc [4]: 0.05556 | Fraction No Phenotype [4]: 0.94 | Fraction Parayzed [4]: 0 | atypical locomotion (number of animals) (15uM): 0 | coiled (number of animals) (15uM): 0 | no phene (number of animals) (15uM): 20 | paralyzed (number of animals) (15uM): 0 | any phene: mean % fraction of young adults exhibiting any phenotype (coiled, jerky-Unc or paralyzed) (15uM): 0% | Fraction Coiled [5]: 0.00 | Fraction Jerky-Unc [5]: 0.41 | Fraction No Phenotype [5]: 0.59 | Fraction Parayzed [5]: 0.00 | Fraction Coiled [6]: 0.00 | Fraction Jerky-Unc [6]: 0.3889 | Fraction No Phenotype [6]: 0.61 | Fraction Parayzed [6]: 0 | Fraction Coiled [7]: 0.00 | Fraction Jerky-Unc [7]: 0.4444 | Fraction No Phenotype [7]: 0.56 | Fraction Parayzed [7]: 0 | Fraction Coiled [8]: 0.00 | Fraction Jerky-Unc [8]: 0.3889 | Fraction No Phenotype [8]: 0.61 | Fraction Parayzed [8]: 0 | Fraction Coiled [9]: 0.0566 | Fraction Jerky-Unc [9]: 0.62 | Fraction No Phenotype [9]: 0.32 | Fraction Parayzed [9]: 0.00 | Fraction Coiled [10]: 0.0556 | Fraction Jerky-Unc [10]: 0.7222 | Fraction No Phenotype [10]: 0.22 | Fraction Parayzed [10]: 0 | Fraction Coiled [11]: 0.06 | Fraction Jerky-Unc [11]: 0.5294 | Fraction No Phenotype [11]: 0.41 | Fraction Parayzed [11]: 0 | Fraction Coiled [12]: 0.0556 | Fraction Jerky-Unc [12]: 0.6111 | Fraction No Phenotype [12]: 0.33 | Fraction Parayzed [12]: 0 | atypical locomotion (number of animals) (60uM): 0 and 1 and 3 and 5 and 2 | coiled (number of animals) (60uM): 1 and 0 | no phene (number of animals) (60uM): 19 and 18 and 17 and 15 | paralyzed (number of animals) (60uM): 0 | any phene: mean % fraction of young adults exhibiting any phenotype (coiled, jerky-Unc or paralyzed) (60uM): 11.6667% | Fraction Coiled [13]: 0.0556 | Fraction Jerky-Unc [13]: 0.74 | Fraction No Phenotype [13]: 0.17 | Fraction Parayzed [13]: 0.037 | Fraction Coiled [14]: 0.11 | Fraction Jerky-Unc [14]: 0.7778 | Fraction No Phenotype [14]: 0.0556 | Fraction Parayzed [14]: 0.05556 | Fraction Coiled [15]: 0.00 | Fraction Jerky-Unc [15]: 0.7222 | Fraction No Phenotype [15]: 0.28 | Fraction Parayzed [15]: 0 | Fraction Coiled [16]: 0.0556 | Fraction Jerky-Unc [16]: 0.7222 | Fraction No Phenotype [16]: 0.17 | Fraction Parayzed [16]: 0.05556 | Fraction Coiled [17]: 0.11 | Fraction Jerky-Unc [17]: 0.80 | Fraction No Phenotype [17]: 0.0741 | Fraction Parayzed [17]: 0.0185 | Fraction Coiled [18]: 0.11 | Fraction Jerky-Unc [18]: 0.8333 | Fraction No Phenotype [18]: 0.00 | Fraction Parayzed [18]: 0.05556 | Fraction Coiled [19]: 0.11 | Fraction Jerky-Unc [19]: 0.7222 | Fraction No Phenotype [19]: 0.17 | Fraction Parayzed [19]: 0 | Fraction Coiled [20]: 0.11 | Fraction Jerky-Unc [20]: 0.8333 | Fraction No Phenotype [20]: 0.0556 | Fraction Parayzed [20]: 0 | EC50 (Caenorhabditis elegans, 1 h): 38.6 ± 3.5 µM | Fraction Coiled [21]: 0.00 | Fraction Jerky-Unc [21]: 0.17 | Fraction No Phenotype [21]: 0.83 | Fraction Parayzed [21]: 0.00 | Fraction Coiled [22]: 0.00 | Fraction Jerky-Unc [22]: 0.41 | Fraction No Phenotype [22]: 0.59 | Fraction Parayzed [22]: 0.00 | Fraction Coiled [23]: 0.0566 | Fraction Jerky-Unc [23]: 0.62 | Fraction No Phenotype [23]: 0.32 | Fraction Parayzed [23]: 0.00 | Fraction Coiled [24]: 0.0556 | Fraction Jerky-Unc [24]: 0.74 | Fraction No Phenotype [24]: 0.17 | Fraction Parayzed [24]: 0.037 | Fraction Coiled [25]: 0.11 | Fraction Jerky-Unc [25]: 0.80 | Fraction No Phenotype [25]: 0.0741 | Fraction Parayzed [25]: 0.0185 | fold difference in C. elegans EC50, Vesamicol vs Nemacol-1 (Vesamicol EC50 higher, Nemacol-1 more potent): 5.4 fold

Source: publication PMC10066365, “Nemacol is a small molecule inhibitor of C. elegans vesicular acetylcholine transporter with anthelmintic potential” (Nature Communications, 2023)
